According to ChEMBL document CHEMBL1140014, “Synthesis and evaluation of pyrazolo[3,4-b]pyridine CDK1 inhibitors as anti-tumor agents” (Bioorg Med Chem Lett, 2007):
In brackets after ≈: the same amount, converted by molar mass.

What was measured:
[1] = test system: HCT-116; assay: cells; details: Homo sapiens
[2] = Inhibition of Aurora2; parameters: species or system Homo sapiens
[3] = target: Vascular endothelial growth factor receptor 2 (Homo sapiens, UniProt P35968); assay: Inhibition of VEGFR2
[4] = test system: A-375; assay: cells; details: Homo sapiens
[5] = test system: HeLa; assay: cells; details: Homo sapiens
[6] = target: Cyclin-dependent kinase 1 (Homo sapiens, UniProt P06493); assay: Inhibition of CDK1
[7] = target: Proto-oncogene tyrosine-protein kinase receptor Ret (Homo sapiens, UniProt P07949); assay: Inhibition of RET
[8] = target: Receptor tyrosine-protein kinase erbB-2 (Homo sapiens, UniProt P04626); assay: Inhibition of HER2
[9] = Solubility in 20% hydroxyl propyl beta-cyclodextrin; type: physicochemical; details: 20% hydroxypropyl beta-cyclodextrin solution
[10] = test system: Rattus norvegicus; assay: (§1) AUC in rat at 2 mg/kg, iv; type: ADME, organism-based, Plasma; parameters: dose 2 mg/kg, route intravenous; details: in vivo
[11] = Cmax in rat at 10 mg/kg, po; type: ADME, organism-based; parameters: dose 10 mg/kg, route oral; details: in vivo
[12] = AUC in rat at 10 mg/kg, po; type: ADME, organism-based; parameters: dose 10 mg/kg, route oral; details: plasma
[13] = Cmax in rat at 2 mg/kg, iv; type: ADME, organism-based; parameters: dose 2 mg/kg, route intravenous; details: in vivo
[14] = Half life in rat at 2 mg/kg, iv; type: ADME, organism-based; parameters: dose 2 mg/kg, route intravenous; details: in vivo
[15] = Oral bioavailability in rat at 10 mg/kg; type: ADME, organism-based; details: in vivo
[16] = Half life in rat at 10 mg/kg, po; type: ADME, organism-based; parameters: dose 10 mg/kg, route oral; details: in vivo
[17] = as §1; type: ADME, organism-based, Plasma; parameters: dose 2 mg/kg, route intravenous; details: plasma
[18] = Clearance in rat at 2 mg/kg, iv; type: ADME, organism-based; parameters: dose 2 mg/kg, route intravenous; details: in vivo

Cyclin-dependent kinase 1, sequence (P06493 whole entry): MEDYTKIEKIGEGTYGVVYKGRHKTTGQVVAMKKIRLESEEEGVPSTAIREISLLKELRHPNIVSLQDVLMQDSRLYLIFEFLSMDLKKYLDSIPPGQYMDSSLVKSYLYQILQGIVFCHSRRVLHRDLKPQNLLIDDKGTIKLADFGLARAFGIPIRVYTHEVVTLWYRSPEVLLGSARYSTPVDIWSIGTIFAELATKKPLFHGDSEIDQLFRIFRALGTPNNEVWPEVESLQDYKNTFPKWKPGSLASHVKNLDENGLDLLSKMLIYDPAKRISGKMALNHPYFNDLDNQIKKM
Proto-oncogene tyrosine-protein kinase receptor Ret, sequence (P07949 whole entry): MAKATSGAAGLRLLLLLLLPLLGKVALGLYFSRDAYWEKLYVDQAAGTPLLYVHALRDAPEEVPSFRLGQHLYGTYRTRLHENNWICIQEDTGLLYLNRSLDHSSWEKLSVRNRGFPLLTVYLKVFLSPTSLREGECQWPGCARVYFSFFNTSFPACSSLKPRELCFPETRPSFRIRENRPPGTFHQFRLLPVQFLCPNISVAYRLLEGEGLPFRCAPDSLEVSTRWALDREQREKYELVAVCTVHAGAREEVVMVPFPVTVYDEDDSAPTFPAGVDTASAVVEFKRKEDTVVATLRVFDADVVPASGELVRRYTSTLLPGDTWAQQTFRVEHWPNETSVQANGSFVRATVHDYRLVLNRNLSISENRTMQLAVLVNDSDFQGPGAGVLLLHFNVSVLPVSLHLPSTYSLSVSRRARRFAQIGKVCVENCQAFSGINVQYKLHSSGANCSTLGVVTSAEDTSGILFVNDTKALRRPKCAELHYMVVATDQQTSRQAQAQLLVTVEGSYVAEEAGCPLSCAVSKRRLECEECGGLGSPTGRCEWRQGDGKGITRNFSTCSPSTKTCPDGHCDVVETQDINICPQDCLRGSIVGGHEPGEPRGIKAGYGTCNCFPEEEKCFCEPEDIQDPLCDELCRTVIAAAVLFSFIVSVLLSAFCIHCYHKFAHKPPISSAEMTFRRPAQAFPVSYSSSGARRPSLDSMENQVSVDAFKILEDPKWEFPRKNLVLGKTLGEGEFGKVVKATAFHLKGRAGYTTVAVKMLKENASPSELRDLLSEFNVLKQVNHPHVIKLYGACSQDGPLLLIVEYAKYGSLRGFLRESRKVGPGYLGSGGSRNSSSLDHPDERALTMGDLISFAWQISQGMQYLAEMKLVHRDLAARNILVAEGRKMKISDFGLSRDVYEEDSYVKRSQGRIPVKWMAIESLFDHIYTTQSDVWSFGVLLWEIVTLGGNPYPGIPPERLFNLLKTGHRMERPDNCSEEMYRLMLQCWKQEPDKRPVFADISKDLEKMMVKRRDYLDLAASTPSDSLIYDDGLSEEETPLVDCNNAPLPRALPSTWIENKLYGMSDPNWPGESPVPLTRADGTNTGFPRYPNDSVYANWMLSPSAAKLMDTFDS
Vascular endothelial growth factor receptor 2, sequence (P35968 whole entry): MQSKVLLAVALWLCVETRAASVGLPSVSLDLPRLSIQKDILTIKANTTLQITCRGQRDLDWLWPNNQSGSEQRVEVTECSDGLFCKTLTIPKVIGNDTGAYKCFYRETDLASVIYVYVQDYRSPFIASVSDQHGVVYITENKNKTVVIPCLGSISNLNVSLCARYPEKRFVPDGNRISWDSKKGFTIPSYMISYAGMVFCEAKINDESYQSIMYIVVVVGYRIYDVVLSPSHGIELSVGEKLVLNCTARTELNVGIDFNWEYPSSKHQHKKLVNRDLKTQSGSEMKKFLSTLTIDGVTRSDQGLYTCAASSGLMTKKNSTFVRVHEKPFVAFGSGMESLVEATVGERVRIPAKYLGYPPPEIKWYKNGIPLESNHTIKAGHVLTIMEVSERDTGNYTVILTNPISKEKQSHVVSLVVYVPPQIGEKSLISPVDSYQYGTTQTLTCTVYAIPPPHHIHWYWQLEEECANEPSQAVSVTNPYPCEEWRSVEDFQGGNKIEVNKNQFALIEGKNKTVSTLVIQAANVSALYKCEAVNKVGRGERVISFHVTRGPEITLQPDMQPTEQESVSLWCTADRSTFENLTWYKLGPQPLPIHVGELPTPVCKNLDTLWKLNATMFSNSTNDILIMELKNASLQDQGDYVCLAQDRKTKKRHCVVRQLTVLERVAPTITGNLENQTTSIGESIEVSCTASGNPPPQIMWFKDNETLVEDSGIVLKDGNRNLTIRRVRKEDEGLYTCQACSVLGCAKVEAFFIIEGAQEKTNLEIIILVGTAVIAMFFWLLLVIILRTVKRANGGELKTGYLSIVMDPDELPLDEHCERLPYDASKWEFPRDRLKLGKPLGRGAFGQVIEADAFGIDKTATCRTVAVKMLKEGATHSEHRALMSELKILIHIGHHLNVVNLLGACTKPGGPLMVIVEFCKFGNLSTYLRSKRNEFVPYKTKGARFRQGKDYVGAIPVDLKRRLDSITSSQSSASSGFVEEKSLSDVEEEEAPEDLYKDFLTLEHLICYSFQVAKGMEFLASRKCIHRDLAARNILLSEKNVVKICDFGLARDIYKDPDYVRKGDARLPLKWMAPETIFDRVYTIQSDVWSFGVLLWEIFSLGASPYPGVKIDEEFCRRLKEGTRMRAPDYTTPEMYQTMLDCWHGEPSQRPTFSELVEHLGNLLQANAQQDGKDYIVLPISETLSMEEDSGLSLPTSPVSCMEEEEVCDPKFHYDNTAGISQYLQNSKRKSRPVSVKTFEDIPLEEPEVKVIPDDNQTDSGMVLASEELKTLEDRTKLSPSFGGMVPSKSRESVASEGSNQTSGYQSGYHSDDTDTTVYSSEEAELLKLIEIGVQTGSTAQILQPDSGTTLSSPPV
Receptor tyrosine-protein kinase erbB-2, sequence (P04626 whole entry): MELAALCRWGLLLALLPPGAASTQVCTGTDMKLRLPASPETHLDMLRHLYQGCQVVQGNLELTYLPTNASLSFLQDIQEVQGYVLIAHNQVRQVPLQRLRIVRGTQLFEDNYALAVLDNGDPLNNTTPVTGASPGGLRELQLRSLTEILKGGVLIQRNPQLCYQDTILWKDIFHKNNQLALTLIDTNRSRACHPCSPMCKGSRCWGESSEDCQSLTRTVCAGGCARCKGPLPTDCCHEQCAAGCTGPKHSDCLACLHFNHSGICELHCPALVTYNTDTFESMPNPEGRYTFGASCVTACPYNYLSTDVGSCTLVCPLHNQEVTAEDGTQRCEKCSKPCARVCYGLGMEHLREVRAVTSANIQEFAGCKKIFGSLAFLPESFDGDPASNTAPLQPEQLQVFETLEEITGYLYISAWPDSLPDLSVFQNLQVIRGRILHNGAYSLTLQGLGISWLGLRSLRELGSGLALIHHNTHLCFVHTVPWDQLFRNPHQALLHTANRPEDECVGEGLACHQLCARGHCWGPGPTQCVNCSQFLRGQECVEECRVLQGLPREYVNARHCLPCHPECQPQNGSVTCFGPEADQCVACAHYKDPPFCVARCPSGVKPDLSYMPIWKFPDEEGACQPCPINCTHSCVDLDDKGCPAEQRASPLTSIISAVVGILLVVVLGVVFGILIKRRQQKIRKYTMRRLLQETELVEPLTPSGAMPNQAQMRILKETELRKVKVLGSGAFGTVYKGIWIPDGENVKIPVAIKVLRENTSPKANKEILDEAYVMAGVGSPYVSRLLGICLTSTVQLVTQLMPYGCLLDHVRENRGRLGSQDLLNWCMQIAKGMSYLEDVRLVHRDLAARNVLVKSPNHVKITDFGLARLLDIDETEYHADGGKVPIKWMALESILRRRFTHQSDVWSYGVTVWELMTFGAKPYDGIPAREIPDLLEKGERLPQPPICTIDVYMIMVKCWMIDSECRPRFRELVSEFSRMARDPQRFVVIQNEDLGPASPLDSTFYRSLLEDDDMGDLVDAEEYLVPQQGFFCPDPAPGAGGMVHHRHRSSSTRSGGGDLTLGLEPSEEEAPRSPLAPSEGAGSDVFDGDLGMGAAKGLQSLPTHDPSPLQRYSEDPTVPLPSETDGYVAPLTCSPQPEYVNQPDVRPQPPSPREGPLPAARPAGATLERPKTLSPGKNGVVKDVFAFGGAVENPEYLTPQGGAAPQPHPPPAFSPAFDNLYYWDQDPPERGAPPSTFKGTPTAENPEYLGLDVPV

IC50 [1] [µM]	IC50 [2] [µM]	IC50 [3] [µM]	IC50 [4] [µM]	IC50 [5] [µM]	IC50 [6] [µM]	SMILES	also measured
0.37	0.041	1.07	0.3	0.4	–	c1ccc2c(-c3cnc4[nH]nc(-c5nc6cc(N7CCOCC7)ccc6[nH]5)c4c3)cncc2c1	–
0.55	–	–	0.87	1.7	0.023	c1ccc2c(-c3cnc4[nH]nc(-c5nc6ccccc6[nH]5)c4c3)cncc2c1	–
> 10	> 10	> 10	> 10	> 10	–	O=C(O)c1cccc2[nH]c(-c3n[nH]c4ncc(-c5cncc6ccccc56)cc34)nc12	–
0.89	> 10	> 100	–	1.76	–	OCc1cccc2[nH]c(-c3n[nH]c4ncc(-c5cncc6ccccc56)cc34)nc12	IC50 [8]: 0.24 µM
1.64	–	10	1.72	3.09	–	Cc1cccc2[nH]c(-c3n[nH]c4ncc(-c5cncc6ccccc56)cc34)nc12	IC50 [8]: 1 µM
0.36	–	–	0.16	0.45	0.014	CN1CCN(c2ccc3[nH]c(-c4n[nH]c5ncc(-c6cncc7ccccc67)cc45)nc3c2)CC1	AUC [17]: 959 ng·h/mL; Cmax [11]: 65 ng/mL; AUC [12]: 173 ng·h/mL; Cmax [13]: 1000 ng/mL; half-life [14]: 0.73 h; clearance [18]: 34.9 mL/min/kg; bioavailability [15]: 4%; half-life [16]: 3.3 h
–	–	100	7.38	10.5	10	COC(=O)c1cccc2[nH]c(-c3n[nH]c4ncc(-c5cncc6ccccc56)cc34)nc12	–
0.031	–	1.55	0.047	0.029	0.0018	CCN(CC)Cc1cccc2[nH]c(-c3n[nH]c4ncc(-c5cncc6ccccc56)cc34)nc12	IC50 [8]: 0.089 µM
0.01	0.32	0.46	0.01	0.015	–	COCc1cccc2[nH]c(-c3n[nH]c4ncc(-c5cncc6ccccc56)cc34)nc12	–
0.055	1	10	0.071	0.17	–	CCN(CC)C(=O)c1cccc2[nH]c(-c3n[nH]c4ncc(-c5cncc6ccccc56)cc34)nc12	IC50 [8]: > 10 µM
0.11	3.62	1	0.14	0.13	0.013	CC(C)NCc1cccc2[nH]c(-c3n[nH]c4ncc(-c5cncc6ccccc56)cc34)nc12	–
0.042	> 0.1	0.38	0.065	0.035	0.039	CC(C)NC(=O)c1cccc2[nH]c(-c3n[nH]c4ncc(-c5cncc6ccccc56)cc34)nc12	–
2.88	> 1	0.1	0.91	2.14	–	CC(C)OCc1cccc2[nH]c(-c3n[nH]c4ncc(-c5cncc6ccccc56)cc34)nc12	–

The next lines start with the molecule.

SMILES	IC50 [1] [µM]	IC50 [2] [µM]	IC50 [3] [µM]	IC50 [4] [µM]	IC50 [5] [µM]	IC50 [6] [µM]	also measured
CCNCc1cncc(-c2cnc3[nH]nc(-c4nc5c(COC)cccc5[nH]4)c3c2)c1C	–	8.02	4.67	–	–	0.11	–
COCc1cccc2[nH]c(-c3n[nH]c4ncc(-c5ccncc5)cc34)nc12	0.062	> 1	0.11	0.023	3.09	–	–
COCc1cccc2[nH]c(-c3n[nH]c4ncc(-c5cnc6ccccc6c5)cc34)nc12	–	> 100	> 100	0.011	1.46	–	IC50 [7]: > 100 µM; IC50 [8]: > 100 µM
COCc1cccc2[nH]c(-c3n[nH]c4ncc(-c5cncc(CN(C)C)c5)cc34)nc12	0.19	3.75	1.6	0.33	1.23	0.12	–
CCNCc1cncc(-c2cnc3[nH]nc(-c4nc5cc(N6CCN(C)CC6)ccc5[nH]4)c3c2)c1	0.54	0.28	0.025	0.63	0.47	0.003	solubility [9]: 12.5 mg/mL (≈ 26.7 mM)
CNCc1cncc(-c2cnc3[nH]nc(-c4nc5c(COC)cccc5[nH]4)c3c2)c1	0.31	> 1	0.64	0.27	0.46	0.0025	IC50 [7]: 1 µM
COCc1cccc2[nH]c(-c3nn(C)c4ncc(-c5cncc6ccccc56)cc34)nc12	0.2	100	> 100	0.26	1.17	0.12	–
CCNCc1cncc(-c2cnc3[nH]nc(-c4nc5cc(F)c(F)cc5[nH]4)c3c2)c1	0.095	> 1	0.1	0.046	0.14	–	solubility [9]: 12.5 mg/mL (≈ 30.8 mM)
CCNCc1cncc(-c2cnc3n[nH]c(-c4nc5ccc(F)cc5[nH]4)c3c2)c1	0.094	0.8	0.15	0.051	0.059	–	AUC [10]: 372 ng·h/mL; Cmax [11]: 3.8 ng/mL; AUC [12]: 150 ng·h/mL; Cmax [13]: 217 ng/mL; half-life [14]: 16.1 h; solubility [9]: 12.5 mg/mL (≈ 32.3 mM); bioavailability [15]: 8%; half-life [16]: 31.3 h
CCNCc1cncc(-c2cnc3[nH]nc(-c4nc5cc(OC)ccc5[nH]4)c3c2)c1	0.049	0.36	> 0.1	0.1	0.032	–	solubility [9]: 12.5 mg/mL (≈ 31.3 mM); IC50 [7]: 1 µM
CCCNCc1cncc(-c2cnc3[nH]nc(-c4nc5c(COC)cccc5[nH]4)c3c2)c1	–	3.99	–	–	–	–	solubility [9]: 12.5 mg/mL (≈ 29.2 mM)
COCc1cccc2[nH]c(-c3n[nH]c4ncc(-c5cncnc5)cc34)nc12	0.33	10	0.11	0.16	9.91	–	–
COCc1cccc2[nH]c(-c3n[nH]c4ncc(-c5cccnc5)cc34)nc12	0.019	> 1	0.16	0.033	0.65	0.029	–
CNCc1cncc(-c2cnc3[nH]nc(-c4nc5cc(OC(F)(F)F)ccc5[nH]4)c3c2)c1	0.055	1	> 0.1	0.047	–	0.009	solubility [9]: 12.5 mg/mL (≈ 28.4 mM)
